From paper PMC12087874, “Biaryl Phosphates and Phosphonates as Selective Inhibitors of the Transcription Factor STAT4” (Angewandte Chemie (International Ed. in English), 2025)

Legend:
STAT4 = molecular target: T1, STAT4 (Homo sapiens, UniProt Q14765); assay: Competitive fluorescence polarization (FP) assay, STAT4 SH2 domain; format: binding; conditions: for Ki / IC50: FP assay, mean ± SD, n = 3; for Ki: tracer 5-carboxyfluorescein-GpYLPQNID-OH, Ki derived from IC50, read-out: STAT4 K i
T1 sequence (Q14765 1-748): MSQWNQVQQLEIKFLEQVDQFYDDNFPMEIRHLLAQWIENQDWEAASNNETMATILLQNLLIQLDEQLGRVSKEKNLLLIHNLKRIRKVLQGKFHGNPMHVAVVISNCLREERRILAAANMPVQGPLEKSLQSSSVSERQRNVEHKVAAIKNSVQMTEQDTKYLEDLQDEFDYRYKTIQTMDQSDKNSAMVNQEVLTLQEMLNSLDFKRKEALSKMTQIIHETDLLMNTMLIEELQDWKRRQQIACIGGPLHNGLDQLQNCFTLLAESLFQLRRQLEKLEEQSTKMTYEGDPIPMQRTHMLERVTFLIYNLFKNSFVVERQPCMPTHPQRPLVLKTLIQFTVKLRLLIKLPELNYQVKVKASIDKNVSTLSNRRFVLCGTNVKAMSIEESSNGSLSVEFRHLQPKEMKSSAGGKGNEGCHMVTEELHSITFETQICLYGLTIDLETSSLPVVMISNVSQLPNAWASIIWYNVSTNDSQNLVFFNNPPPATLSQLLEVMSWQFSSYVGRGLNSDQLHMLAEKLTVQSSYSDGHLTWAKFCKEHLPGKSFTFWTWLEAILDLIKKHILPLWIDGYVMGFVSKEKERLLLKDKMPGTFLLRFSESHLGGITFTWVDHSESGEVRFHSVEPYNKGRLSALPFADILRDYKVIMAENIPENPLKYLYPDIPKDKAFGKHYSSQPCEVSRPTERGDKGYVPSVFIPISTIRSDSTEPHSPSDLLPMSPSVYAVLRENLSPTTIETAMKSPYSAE
Method: Fluorescence polarization assays
Competitive fluorescence polarization assays, which measure the abilities of test compounds (dissolved in DMSO) to displace a fluorescent-labeled peptide from the SH2 domain of a STAT protein, were carried out essentially as described. Proteins were used at the following final concentrations: 23 nM or 28 nM for STAT4; between 56 nM and 91 nM for STAT1; 107 nM or 110 nM for STAT3; between 131 nM and 177 nM for STAT5a; between 62 nM and 85 nM for STAT5b; and 101 nM or 106 nM for STAT6. These concentrations represent the approximate […]
dissociation constant for peptide binding of the respective protein batches used in the assays.
The following peptides were used: 5-carboxyfluorescein-GpYLPQNID-OH for STAT4; 5-carboxyfluorescein-GpYDKPHVL for STAT1; 5-carboxyfluorescein-GpYLPQTV-NH2 for STAT3; 5-carboxyfluorescein-GpYLVLDKW for STAT5a/b, and 5-carboxyfluorescein- […]
Gp[…]-OH for STAT6. All peptides were used at a final concentration of 10 nM. The buffer consisted of 10 mM Tris (pH 8.0), 50 mM NaCl, 1 mM EDTA, 1 mM DTT, 0 .1 % Nonidet P-40 substitute, and 2 % DMSO. After incubation of protein and test compound for 1 h at room temperature, the fluorescent -labeled peptide was added. Samples were transferred to 384 - well microtiter plates and fluorescence polarization was read after an additional 60 min of incubation time. Measurements were performed in triplicate. Percent binding was calculated based on a logarithmic curve fit using OriginPro 8G software. IC 50 values were converted to Ki-values via the published equation[3] using the corresponding Excel spread sheet […]
https://websites.umich.edu/~shaomengwanglab/software/calc_ki/index.html .
Error bars represent standard deviations. Ligand efficiencies (LE) were calculated by the formula LE = -1,37 x log Ki / number of non-hydrogen atoms.[4] […]

wild‐type STAT4 = molecular target: T2, wild‐type STAT4 (Homo sapiens, UniProt Q14765); assay: Isothermal titration calorimetry (ITC), wild-type STAT4; format: binding; conditions: for Kd: ITC, 25 °C, one-site binding model, read-out: K d (ITC), wild-type STAT4
T2 construct: 6xHis; made in house
T2 sequence (Q14765 1-748): T1 sequence (Q14765 1-748)
Method: Isothermal Titration Calorimetry
Purification of 6xHis-tagged proteins for ITC experiments was carried out by affinity chromatography on His-Bind resin. The eluting fractions were analyzed by SDS -PAGE.
Proteins were dialyzed against ITC buffer (10 mM Tris pH 8.0, 50 mM NaCl) using dialysi s tubing with a 50 kDa cut-off. ITC experiments were performed using a VP-ITC Micro Calorimeter (MicroCal). 6m was dissolved as a 100 mM stock in DMSO and diluted 1/1000 in ITC buffer (Tris pH 8.0 and 50 mM NaCl), resulting in a final concentration of 100 µM. 8k was dissolved as a 5 mM stock in ITC buffer and diluted 1/25 in ITC buffer with DMSO, resulting in a final concentration of 200 µM 8k. DMSO was added to a final concentration of 2% (v/v). To avoid errors caused by the detection of dilution heat, 0.1 % (v/v) DMSO for 6m or 2% (v/v) DMSO for 8k experiments was added to the buffers containing the proteins and to the reference buffer. Proteins were degassed before the experiments using a ThermoVac sample degassing station. The following conditions were used for ITC experiments: 10 µM STAT4 protein for 6m or 20 µM STAT4 protein for 8k experiments, 100 µM 6m or 200 µM 8k, 28 injections with 10 µL single injection volume, 250 s initial delay, 500 s spacing between injections, 250 µcal/s reference power, 300 rpm stirring at 25 °C for 6m or 220 rpm stirring at 25 °C for 8k. Data analysis was performed using NITPIC[1, 5] and SEDPHAT,[6] applying a low-noise integration approach. Data were fitted using a one-site binding model. Figures were generated using GUSSI.[7] Experiments were carried out in quadruplicate for 6m and triplicate

| SMILES | Ki (STAT4) | IC50 (STAT4) | selectivity for STAT4 over the SH2 domain of STAT5a (STAT4; FP assays, Ki ratio) | selectivity for STAT4 over the SH2 domain of STAT5b (STAT4; FP assays, Ki ratio) | selectivity for STAT4 over the SH2 domains of STAT1, STAT3, and STAT6 (STAT4; FP assays, Ki ratio) | ligand efficiency (STAT4; LE = -1,37 x log Ki / number of non-hydrogen atoms, STAT4 Ki) | Kd (wild‐type STAT4) | dissociation constant (ITC) relative to IC50 value in FP assays (wild‐type STAT4; Kd (ITC) higher than IC50 (FP), STAT4) | selectivity for STAT4 over other STAT proteins (STAT4; FP assays) |
| --- | --- | --- | --- | --- | --- | --- | --- | --- | --- |
| O=P(O)(O)Oc1ccc(-c2ccccc2)cc1 [Compound 1, para‐biphenyl phosphate] | 1100 ± 100 nM | 2300 ± 200 nM | ~20 fold | ~40 fold | 7–8 fold | – | – | – | – |
| O=P(O)(O)Oc1ccc(-c2ccccc2)cc1F [Compound 6h] | 560 ± 80 nM | 1200 ± 200 nM | – | – | – | – | – | – | – |
| Cc1cc(-c2ccc(C(F)(F)P(=O)(O)O)c(F)c2)cs1 [Compound 8k] | 1700 ± 200 nM | 3700 ± 400 nM | – | – | – | 0.39 kcal/mol | 7100 ± 1100 nM | 2 fold | – |
| O=P(O)(O)Oc1ccc(-c2ccc3ccccc3c2)cc1F [Compound 6m] | 350 ± 10 nM | 760 ± 10 nM | – | – | – | – | 1300 ± 300 nM | – | 10–70 fold |
| O=P(O)(O)Oc1ccc(-c2ccc3ccccc3c2)cc1 [Compound 6g] | 440 ± 90 nM | 950 ± 190 nM | – | – | – | – | – | – | – |
| O=P(O)(O)C(F)(F)c1ccc(-c2ccc3ccccc3c2)cc1F [Compound 8a] | 4000 ± 500 nM | 8500 ± 1000 nM | – | – | – | – | – | – | – |
